Here are results for five compounds from patent US11724980B2, “Quinones having high capacity retention for use as electrolytes in aqueous redox flow batteries” (President and Fellows of Harvard College, priority 2018, dated 2023).

The conditions of series [1]: previous study (ref 3/17); cited from earlier work.
A short description of series [2]: physchem. The class given is physicochemical. Conditions: for solubility: thermodynamic from solid. As to the method:
Solubility limits of all DBEAQ isomers were measured in their oxidized forms by adding the potassium salt of DBEAQ (prepared by reacting DBEAQ with potassium hydroxide in water) until no further solid could be dissolved. After filtering the mixture through a PTFE 0.45 μm syringe filter, a saturated solution of DBEAQ in KOH was obtained. The saturated solution was then diluted by a known amount, and the concentration was evaluated by UV-Vis (Ocean Optics Flame-S Spectrometer Assembly) at 280 and 364 nm. […]
The solubility limit of DPPEAQ was measured in the oxidized form by adding the potassium salt of DPPEAQ (prepared by reacting DPPEAQ with potassium hydroxide in water) until no further solid could be dissolved. The mixture was adjusted to pH 9. After filtering the mixture through a PTFE 0.45 μm syringe filter, a saturated solution of DPPEAQ at pH 9 was obtained. The saturated solution was then diluted by a known amount while maintaining a pH of 9, and the concentration was evaluated by UV-Vis (Agilent Cary 60 spectrophotometer). The concentration was calculated according to a pre-calibrated absorbance-concentration curve of known concentrations of DPPEAQ at pH 9.

For series [3] the following is noted: pH 14 KOH, literature (ref 3); cited from earlier work.
For series [4] the following is noted: cited from earlier work.
Series [5] can be described thus: CV simulation as two one-electron reductions. The class given is physicochemical. Conditions: same AQ:AQ2− ratio, from E1-E2 separations. As to the method:
FIG. 6. Capacitance-corrected CV of 5 mM 2,6-DBEAQ in 1 M KOH (solid grey line). The dashed red line represents the simulated total current arising from two successive one-electron reductions with reduction potentials of −0.517 and −0.511 V vs. SHE, according to the procedure outlined in a previous publication.^1 Each simulated reduction has a rate constant ko=7×10^−3 cm/s and α=0.5.
A first CV experiment was performed in which 2,6-DBEAQ was dissolved in pH 14 KOH solution at a concentration of 5 mM. CV measurements were plotted in FIG. 5A and include results for the isomers of 2,6-DBEAQ.
Following our previous study on 2,6-DHAQ^17 and literature reports^1,18 on quinone electrochemistry in the absence of proton donors, we simulated the CV of 2,6-DBEAQ as representing two reversible electron transfer steps at two different potentials E1 and E2. The separation between simulated redox potentials for the first (E1) and second (E2) electron reductions for 2,6-DBEAQ is considerably narrower than the corresponding peak separation for 2,6-DHAQ^17 (6 mV vs. 60 mV).
The pH dependence of the proton-coupled electron transfer (POET) redox reaction for a generalized anthraquinone (AQ) is often visualized by the nine-membered square scheme (FIG. 7). The horizontal direction indicates electron transfer (ET), and the vertical direction indicates proton transfer (PT or protonation). Under strongly alkaline conditions, where the pH is higher than the second pKa (pKa2) of the reduced AQ (AQ^2−), no protonation of the semiquinone anion will take place, and reduction proceeds via two ET steps, from AQ to a semiquinone (AQ-^●) at E1, and from AQ-^● to AQ^2− at E2 which is typically <E1. Depending on the value of E1-E2, the mechanism of AQ reduction in alkaline conditions can either be a concerted one-step, two-electron process or two single-electron processes. […]

Series [6] in a line: Unbalanced compositionally-symmetric cell cycling. Conditions: for temporal fade rate: 0.10 M, pH 12 (0.01 M KOH). As to the method: As a direct probe of the effect of O-alkylation of anthraquinone on its chemical stability, 2,6-DBEAQ was cycled potentiostatically in a volumetrically unbalanced compositionally-symmetric cell configuration.
Potentiostatic symmetric cell cycling was performed according to a reported procedure^8 in order to assess the temporal chemical stability of DBEAQ, independent of any variations in apparent capacity as a result of changes to membrane resistance, and in a configuration where there is negligible water or reactant crossover due to the same DBEAQ concentration being used in both electrolytes. […] 5 mL of the resulting electrolyte was used as the capacity-limiting side of a volumetrically unbalanced compositionally-symmetric cell, while the remaining 10 mL was used as the non-capacity-limiting side, i.e., with twice the nominal capacity of the capacity-limiting side. […].
The cycling stability of the DPPEAQ electrolyte was also studied by a previously published symmetric cell method.^24 Although the oxidized form of DPPEAQ is readily soluble at pH 9, proton-coupled electron transfer raises the pH of the electrolyte when it is reduced. Such pH fluctuations can produce misleading results in symmetric cell testing unless the starting pH is above the cutoff point for proton-coupled electron transfer.

For series [7] the following is noted: cited from earlier work. This is another data set of the same source.
Series [8] can be described thus: Rotating disk electrode study with Levich analysis. The format is physicochemical. Conditions: 5 mM in 1 M KOH, Levich plot. As to the method: Glassy carbon was used as the working electrode for all three-electrode CV tests. RDE experiments were conducted using a Pine Instruments Modulated Speed Rotator AFMSRCE equipped with a 5 mm diameter glassy carbon working electrode, a Ag/AgCl reference electrode (BASi, pre-soaked in 3 M NaCl solution), and a graphite counter electrode. The electrode was rotated at a specific speed while the voltage was linearly swept from −0.4 to −0.11 V vs. Ag/AgCl (FIG. 4A). […]. RDE experiments were conducted using a Pine Instruments Modulated Speed Rotator AFMSRCE equipped with a 5 mm diameter glassy carbon working electrode, a Ag/AgCl reference electrode (BASi, pre-soaked in a 3 M KCl solution), and a graphite counter electrode. […]

Series [9] can be described thus: physchem. The format is physicochemical. Conditions: 0.1 M. As to the method:
FIGS. 24A-24D. Comparison of the stability of DPPEAQ with respect to alkyl chain cleavage to that of 2,6-DBEAQ at pH 14. ^1H NMR spectra (500 MHz, 10 mM NaCH3SO3 internal standard, δ 2.6 ppm) of (A) DPPEAQ at pH 14; (B) DPPEAQ at pH 14, treated for 5.5 days at 95° C. and 0.1 M concentration; (C) 2,6-DBEAQ at pH 14; (D) 2,6-DBEAQ at pH 14, treated for 5.5 days at 95° C. and 0.1 M concentration. […] The relative integrals and splitting of the peaks in the spectra of DPPEAQ after treatment are consistent with the products of (3-hydroxypropyl)phosphonate cleavage. Samples of DPPEAQ at 0.1 M concentration and pH 14 in both the oxidized and reduced form were stored in FEP bottles and heated in an oven at 65° C. for 2 weeks. The extent of decomposition was determined by ^1H NMR, with peak integrals measured relative to an internal standard of NaCH3SO3 prepared at 10 mM concentration in D2O.
By performing elevated temperature chemical stability studies, we have identified that the cleavage of γ-hydroxybutyrate is involved in the decomposition of the oxidized form of 2,6-DBEAQ (FIGS. 10A-10C and FIGS. 11A-11D), and we have characterized the time course of γ-hydroxybutyrate cleavage at pH 12 and pH 14 and at 0.1 M and 0.5 M concentration (FIG. 12 and FIGS. 13A-13C). […]; these observations are consistent with long redox flow battery lifetime at typical operating cell conditions.
We designed an analogue of 2,6-DBEAQ but with phosphonate-terminated functional groups, DPPEAQ, appearing to deliver both of these desired outcomes.
The differing relative stabilities of DPPEAQ and 2,6-DBEAQ at pH 12 (at 95° C. and 0.1 M concentration), in contrast to the similar extent of their observed decomposition at pH 14, may be due to a competition between multiple decomposition mechanisms that vary in a pH-dependent manner. The concentration of hydroxide ions at pH 14 is tenfold higher than the concentration of either molecule at 0.1 M, as opposed to tenfold lower at pH 12. In particular, we propose a hydroxide-mediated nucleophilic substitution reaction (SNAr or SN2) that dominates the decomposition of both molecules at pH 14. However, at a lower pH of 12, an intramolecular reaction with carboxylate acting as the nucleophile dominates in the decomposition of 2,6-DBEAQ, while no analogous intramolecular reaction of DPPEAQ at pH 12 can take place due to much weaker nucleophilicity of bulked phosphonate compared with carboxylate. The difference in the dominant mechanisms of 2,6-DBEAQ decomposition at pH 12 and 14 that we are proposing is also consistent with the observation that the initial rate of degradation is not 100-fold slower at pH 12 relative to pH 14. […] In addition, the operability at lower pH serves to decrease the corrosion of battery systems and enable the use of less expensive materials.

The nature of series [10]: Cyclic voltammetry on glassy carbon electrode. The class given is physicochemical. As to the method: Glassy carbon was used as the working electrode for all three-electrode CV tests. RDE experiments were conducted using a Pine Instruments Modulated Speed Rotator AFMSRCE equipped with a 5 mm diameter glassy carbon working electrode, a Ag/AgCl reference electrode (BASi, pre-soaked in 3 M NaCl solution), and a graphite counter electrode. The electrode was rotated at a specific speed while the voltage was linearly swept from −0.4 to −0.11 V vs. Ag/AgCl (FIG. 4A). […].
A second CV experiment was performed in which 2,6-DBEAQ was dissolved in pH 14 KOH solution at a concentration of 2 mM. CV measurements were plotted in FIG. 4C. The standard equilibrium potential was determined to be −0.49 V vs. SHE. The separation between the peaks in the CV curves was 42 mV, indicating fairly rapid and reversible electrochemical reactions at the surface of the electrodes.

In brackets after ≈: the same amount, converted by molar mass. Where two headings read alike, the source gives them in different places.

What is called solubility is how much of the substance goes into solution per volume. As for `O=C1c2ccc(O)cc2C(=O)c2ccc(O)cc21` [2,6-DHAQ, 2,6-dihydroxyanthraquinone], in series [1], the E1-E2 separation is given as 60 mV. Besides, the solubility stood at 100 mM (≈ 24 mg/mL) in “physchem [2]” (pH 12, aqueous buffer) and 60 mM (≈ 14.4 mg/mL) in the series “physchem [2]” (pH 14, aqueous buffer). For the same compound, the room temperature solubility in series [3] is 600 mM. In addition, the capacity fade rate in [4] (reported (refs 21,22)) is 5 %/day. Also, the “Keq_comp for semiquinone formation, times higher than for 2,6-DBEAQ” value in [5] is listed as 2.83 times. The “temporal capacity fade rate” value in [6] (pH 14 (1 M KOH), 0.10 M (2,6-DBEAQ also 0.65 M)) is recorded as 5 %/day. In series [7] (comparison value for 2,6-DHAQ), the reduction potential was −680 mV vs. SHE. In series [7] (literature (ref 3)), the redox peak separation is approximately 90 mV.

Consider `O=C1c2ccc(OCCCP(=O)(O)O)cc2C(=O)c2ccc(OCCCP(=O)(O)O)cc21` [DPPEAQ, (((9,10-dioxo-9,10-dihydroanthracene-2,6-diyl)bis(oxy))bis(propane-3,1-diyl))bis(phosphonic acid)], for which the “diffusion coefficient for the oxidized form” value in series [8] was 1.37×10^−6 cm^2/s. For the same compound, the decomposition result is “no significant decomposition” in “physchem [9]” (pH 9, 6 days at 95° C.); “no significant decomposition” in the series “physchem [9]” (pH 12, 6 days at 95° C.); 45% in the series “physchem [9]” (pH 14, 5.5 days at 95° C.). For the same compound, in “physchem [9]” (pH 14, 12 days at 65° C.), the “chemical stability of the reduced form” value was “robust chemical stability”. The solubility in the series “physchem [2]” (pH 9, aqueous buffer, pH 9, read-out: solubility of the oxidized form) is 750 mM (≈ 363 mg/mL). Moreover, in [6] (0.1 M, pH 13, cycled 6 days), the capacity fade is given as 0.02 %/day. Further, the “pH above which the potential is pH-independent” value in series [10] (Pourbaix diagram) was approximately 12.4. In addition, the “redox potential (E1/2)” value in [10] (buffered pH 9) is recorded as −0.39 V vs. SHE; in series [10] (buffered pH 12), −0.47 V vs. SHE; in series [10] (pH 9 unbuffered aqueous solution) it was −0.47 V vs. SHE; in series [10] (pH 12 unbuffered aqueous solution) it was −0.49 V vs. SHE. The same compound had a Pourbaix diagram slope in series [10] (fit to data below pH 12) of −30 mV/pH.

Turning to `O=C(O)CCCOc1cccc2c1C(=O)c1c(OCCCC(=O)O)cccc1C2=O` [1,8-DBEAQ], in “physchem [2]”, the “Solubility (M) at pH 14 (pH 12)” value worked out at 0.75 M. Further, in [6], the temporal fade rate was more than 10 %/day.

For the compound `O=C1c2ccc(S(=O)(=O)O)cc2C(=O)c2ccc(S(=O)(=O)O)cc21` [AQDS, 9,10-anthraquinone-2,6-disulfonate], the temporal fade rate in series [4] (lowest previously reported quinone-based electrolyte (refs 10,11)) is recorded as 0.1-0.2 %/day.

As to `O=C(O)CCCOc1ccc2c(c1OCCCC(=O)O)C(=O)c1ccccc1C2=O` [1,2-DBEAQ], the “Solubility (M) at pH 14 (pH 12)” value in the series “physchem [2]” was 0.9 M. Further, the temporal fade rate entry in series [6] is recorded as “greater than 0.1 %/day”.
